Molecules are shown by their SMILES.

What all share (type): cell-based
For one experiment, the target named is T1, SST2 (Homo sapiens, UniProt P30874).
T1 construct: host or cells: PathHunter CHO-K1 SST2 cells
Description: PathHunter CHO-K1 SST2 Internalization Assay. Conditions: PathHunter CHO-K1 SST2 cells; 90 min at 37 C; luminescence; read-out: Internalization EC50. The procedure: NDCs of the present invention were assessed in vitro using the human PathHunter CHO-K1 SST2 β-arrestin2 and PathHunter CHO-K1 SST2 Internalization Assays from DiscoverX. The CHO-K cells were seeded in 20 μLs of cell culture medium in a white-walled 384 well tissue culture-compatible plate at a density of 2500 cells/well. After a 48-hour incubation, cells were treated with 5 μLs of a 1:3 serially diluted SST2 NDC prepared at 5× concentration with a final top compound concentration of 10 uM for 90 min at 37 C and in 5% CO2. 11 dilutions were tested as well as one treatment that was compound free. After incubation, the media containing treatments were discarded and 20 μL of a working solution of Beta-Glo from Promega Beta-Go Assay System was added to each well. The plate was then incubated for 60 min at room temperature in the dark. Luminescence was measured using a Tecan plate reader. IC50 curves were generated using the nonlinear regression analysis (four-parameters) with GraphPad Prism 9. Results were the average of duplicates and are corrected for background.

Experiment [1] has as its system NCI-H524 human small cell lung cancer cells. Briefly: H524 assay: inhibition of cell proliferation (CellTiter Glo). The following applies: 2 h treatment, washout, additional 70 h incubation. The procedure: NDCs of the present invention were assessed in an in vitro assay evaluating the inhibition of cell proliferation. NCI-H524 (ATCC) human small cell lung cancer cells were plated in 96-well V-bottom plates (Costar) at a concentration of 5,000 cells/well. 24 h later, the cells were treated for 2 h with a NDC. NDC starting dose was 1 uM and two-fold serial dilutions were done for a total of 11 points. After 2 h of treatment, cells were spun down, and the drug-containing media was removed, and fresh complete media was added and used to resuspend the cells, which were spun again. After removal of the media, the cells were resuspended in complete medium and incubated for an additional 70 h. Cell proliferation was assessed using the CellTiter Glo Assay according to the standard protocol (Promega). Luminescence was measured using a TECAN plate reader. Percent proliferation inhibition was calculated using the following formula: % inhibition=(Luminescence Control−Luminescence Treatment)/Luminescence Control*100. IC50 curves were generated using the nonlinear regression analysis (four-parameter) with GraphPad Prism 9.
In general terms: Cellular ATP, detected with luciferase, serves as a proxy for viable cell number.

The target of experiment [2] is T2, human somatostatin receptor subtype 2 (Homo sapiens, UniProt P30874).
T2 construct: expressed in transfected cells
T2 sequence (P30874 whole entry): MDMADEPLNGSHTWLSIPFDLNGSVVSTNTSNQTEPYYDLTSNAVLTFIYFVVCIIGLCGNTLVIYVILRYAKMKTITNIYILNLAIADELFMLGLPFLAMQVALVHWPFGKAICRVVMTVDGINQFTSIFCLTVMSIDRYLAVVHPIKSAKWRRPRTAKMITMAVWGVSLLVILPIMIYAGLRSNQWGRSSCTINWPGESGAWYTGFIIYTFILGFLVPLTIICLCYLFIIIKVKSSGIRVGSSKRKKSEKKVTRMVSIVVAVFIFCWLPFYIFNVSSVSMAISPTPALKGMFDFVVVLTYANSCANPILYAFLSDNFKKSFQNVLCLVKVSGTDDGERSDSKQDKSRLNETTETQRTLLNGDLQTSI
Briefly: Functional assay for SSTR2 agonists (HTRF cAMP). Conditions: CHO-K1 cells stably expressing human SST2; NKH477-stimulated cAMP; 20 min at 37 C; read-out: hSST2 cAMP Avg EC50. The text has this: General overview: All five SSTR subtypes are Gi coupled G-protein coupled receptors (GPCRs) that lead to decreases in intracellular cyclic AMP (cAMP) when activated by an agonist. Therefore, measurement of intracellular cAMP levels can be used to assess whether compounds of the invention are agonists of SSTR subtypes (John Kelly, Troy Stevens, W. Joseph Thompson, and Roland Seifert, Current Protocols in Pharmacology. 2005, 2.2.1-2.2). One example of an intracellular cAMP assay is described below.
Four days prior to the assay, 2,000 Chinese hamster ovary cells (CHO-K1, ATCC #CCL-61) stably expressing the human somatostatin receptor subtype 2 are plated in each well of a 96-well tissue culture-treated plate in Ham's F12 growth media (ThermoFisher #10-080-CM) supplemented with 10% donor bovine serum (Gemini Bio-Products #100-506), 100 U/mL penicillin; 100 ug/mL streptomycin, 2 mM L-glutamine (Gemini Bio-Products #400-110) and 0.2 mg/mL hygromycin B (GoldBio #31282-04-9). The cells are cultured at 37° C., 5% CO2 and 95% humidity. cAMP is measured with HTRF dynamic cAMP assay (Cisbio. #62AM5PEJ) per manufacturer's instructions. […] The cells are incubated for 20 minutes at 37° C. (the final concentration of the compounds of the invention are typically 0-10,000 nM). The cells are treated with 50 μL of lysis buffer (HRTF cAMP kit, Cisbio) and incubated at room temperature for 30 minutes with rotary shaking at 600 rpm, and then diluted with 150 μL of stimulation buffer and shaken for an additional five minutes at 300 rpm. The lysate is transferred to 384-well plates and incubated for 1-24 hours at room temperature, and cAMP accumulation is detected by d2-labeled cAMP and Anti-cAMP-Cryptate. The time-resolved fluorescent signal is read using a m1000 Pro (Tecan) or CLARIOStar (BMG Labtech) microplate reader, where the samples are excited with light at 340 nm and emission light is measured at 620 nm and 665 nm. The data is expressed as a calculation of the fluorescence ratio (665 nm/620 nm). The intracellular cAMP concentrations are calculated by regression to a standard curve and are plotted vs, the concentration of the compounds of the invention. The EC50 of the compounds are calculated using standard methods. All data manipulations are in GraphPad Prism v9 (GraphPad, San Diego, CA).
In general terms: Time-resolved FRET reads energy transfer from a long-lived donor to a nearby acceptor.

T1 sequence (P30874 whole entry): as above

As for `CC[C@H](C)[C@@H]([C@@H](CC(=O)N1CCC[C@H]1[C@H](OC)[C@@H](C)C(=O)N[C@H](C)[C@@H](O)c1ccccc1)OC)N(C)C(=O)[C@@H](NC(=O)[C@H](C(C)C)N(C)C(=O)OCc1ccc(NC(=O)[C@H](CCCNC(N)=O)NC(=O)[C@@H](NC(=O)[C@H](CCC(=O)O)NC(=O)CCOCCC(=O)NCCNc2ncc(-c3cc(C)cc(F)c3)c(N3CCC(N)CC3)c2-c2nc3ccc(Cl)cc3[nH]2)C(C)C)cc1C(F)(F)F)C(C)C` [Compound 2], the EC50 came out at 8.6 nM at SST2, 2500 nM in experiment [1] and 0.57 nM in experiment [2].
The matching figures for `CC[C@H](C)[C@@H]([C@@H](CC(=O)N1CCC[C@H]1[C@H](OC)[C@@H](C)C(=O)N[C@H](C)[C@@H](O)c1ccccc1)OC)N(C)C(=O)[C@@H](NC(=O)[C@H](C(C)C)N(C)C(=O)OCc1ccc(NC(=O)[C@H](CCCNC(N)=O)NC(=O)[C@@H](NC(=O)[C@H](CCC(N)=O)NC(=O)CCOCCOCCOCCOCCC(=O)NCCNc2ncc(-c3cc(C)cc(F)c3)c(N3CCC(N)CC3)c2-c2nc3ccc(Cl)cc3[nH]2)C(C)C)c(OCCN)c1)C(C)C` [Compound 26]: 12 nM, 17 nM and 0.3 nM.
For `CC[C@H](C)[C@@H]([C@@H](CC(=O)N1CCC[C@H]1[C@H](OC)[C@@H](C)C(=O)N[C@H](C)[C@@H](O)c1ccccc1)OC)N(C)C(=O)[C@@H](NC(=O)[C@H](C(C)C)N(C)C(=O)OCc1ccc(NC(=O)[C@H](CCCNC(N)=O)NC(=O)[C@@H](NC(=O)c2cc(C(=O)NCC(=O)O)cc(N(C)CCOCCOCCOCCOCCC(=O)NCCNc3ncc(-c4cc(C)cc(F)c4)c(N4CCC(N)CC4)c3-c3nc4ccc(Cl)cc4[nH]3)c2)C(C)C)cc1)C(C)C` [Compound 159] the same measures were 23 nM, 130 nM and 1.2 nM.
For `CC[C@H](C)[C@@H]([C@@H](CC(=O)N1CCC[C@H]1[C@H](OC)[C@@H](C)C(=O)N[C@H](C)[C@@H](O)c1ccccc1)OC)N(C)C(=O)[C@@H](NC(=O)[C@H](C(C)C)N(C)C(=O)OCc1ccc(NC(=O)[C@H](CCCNC(N)=O)NC(=O)[C@@H](NC(=O)CCOCCC(=O)NCCNc2ncc(-c3cc(C)cc(F)c3)c(N3CCC(N)CC3)c2-c2nc3ccc(Cl)cc3[nH]2)C(C)C)c(O[C@@H]2O[C@H](C(=O)N(C)CC(=O)O)[C@@H](O)[C@H](O)[C@H]2O)c1)C(C)C` [Compound 216] the same measures were 3 nM, 8.6 nM and 0.076 nM.
Take `CC[C@H](C)[C@@H]([C@@H](CC(=O)N1CCC[C@H]1[C@H](OC)[C@@H](C)C(=O)N[C@H](C)[C@@H](O)c1ccccc1)OC)N(C)C(=O)[C@@H](NC(=O)[C@H](C(C)C)N(C)C(=O)OCc1ccc(NC(=O)[C@H](CCCNC(N)=O)NC(=O)[C@@H](NC(=O)c2cc(NCCOCCOCCOCCC(=O)NCCNc3ncc(-c4cc(C)cc(F)c4)c(N4CCC(N)CC4)c3-c3nc4ccc(Cl)cc4[nH]3)cc(C(=O)OC)c2)C(C)C)cc1)C(C)C` [Compound 178]: the EC50 at SST2 came out at 5.6 nM; in experiment [1] it was 620 nM; in experiment [2], 0.27 nM.
Turning to `CC[C@H](C)[C@@H]([C@@H](CC(=O)N1CCC[C@H]1[C@H](OC)[C@@H](C)C(=O)N[C@H](C)[C@@H](O)c1ccccc1)OC)N(C)C(=O)[C@@H](NC(=O)[C@H](C(C)C)N(C)C(=O)OCc1ccc(NC(=O)[C@H](CCCNC(N)=O)NC(=O)[C@@H](NC(=O)[C@H](CCC(=O)O)NC(=O)CCOCCC(=O)NCCNc2ncc(-c3cc(C)cc(F)c3)c(N3CCC(N)CC3)c2-c2nc3ccc(Cl)cc3[nH]2)C(C)C)cc1C(=O)NCCNC)C(C)C` [Compound 57], the EC50 was found to be 6.6 nM on SST2, 1000 nM in experiment [1] and 0.31 nM in experiment [2].
For `CC[C@H](C)[C@@H]([C@@H](CC(=O)N1CCC[C@H]1[C@H](OC)[C@@H](C)C(=O)N[C@H](C)[C@@H](O)c1ccccc1)OC)N(C)C(=O)[C@@H](NC(=O)[C@H](C(C)C)N(C)C(=O)OCc1ccc(NC(=O)[C@H](C)NC(=O)[C@@H](NC(=O)[C@@H](CS(=O)(=O)O)NC(=O)CCOCCC(=O)NCCNc2ncc(-c3cc(C)cc(F)c3)c(N3CCC(N)CC3)c2-c2nc3ccc(Cl)cc3[nH]2)C(C)C)cc1C(=O)N1CC(C(=O)O)C1)C(C)C` [Compound 78] the same measures were 8.7 nM, 350 nM and 0.22 nM.
The matching figures for `CC[C@H](C)[C@@H]([C@@H](CC(=O)N1CCC[C@H]1[C@H](OC)[C@@H](C)C(=O)N[C@H](C)[C@@H](O)c1ccccc1)OC)N(C)C(=O)[C@@H](NC(=O)[C@H](C(C)C)N(C)C(=O)OCc1ccc(NC(=O)[C@H](CCCNC(N)=O)NC(=O)[C@@H](NC(=O)CCOCCOCCOCCOCCC(=O)NCCNc2ncc(-c3cc(C)cc(F)c3)c(N3CCC(N)CC3)c2-c2nc3ccc(Cl)cc3[nH]2)C(C)C)cc1C(=O)NCC(=O)O)C(C)C` [Compound 86]: 4.1 nM, 1000 nM and 0.068 nM.
For `CC[C@H](C)[C@@H]([C@@H](CC(=O)N1CCC[C@H]1[C@H](OC)[C@@H](C)C(=O)N[C@H](C)[C@@H](O)c1ccccc1)OC)N(C)C(=O)[C@@H](NC(=O)[C@H](C(C)C)N(C)C(=O)OCc1ccc(NC(=O)[C@H](CCCNC(N)=O)NC(=O)[C@@H](NC(=O)CCOCCC(=O)N(C)CC(=O)NCCNc2ncc(-c3cc(C)cc(F)c3)c(N3CCC(N)CC3)c2-c2nc3ccc(Cl)cc3[nH]2)C(C)C)c(OCC(N)=O)c1)C(C)C` [Compound 21], the EC50 on SST2 came out at 7.6 nM; in experiment [1], 13 nM; in experiment [2], 0.096 nM.
Take `CC[C@H](C)[C@@H]([C@@H](CC(=O)N1CCC[C@H]1[C@H](OC)[C@@H](C)C(=O)N[C@H](C)[C@@H](O)c1ccccc1)OC)N(C)C(=O)[C@@H](NC(=O)[C@H](C(C)C)N(C)C(=O)OCc1ccc(NC(=O)[C@H](CCCNC(N)=O)NC(=O)[C@@H](NC(=O)c2ccc(NC(=O)CCOCCOCCOCCOCCC(=O)NCCNc3ncc(-c4cc(C)cc(F)c4)c(N4CCC(N)CC4)c3-c3nc4ccc(Cl)cc4[nH]3)cc2O[C@@H]2OC(C(=O)O)[C@@H](O)[C@H](O)[C@H]2O)C(C)C)cc1)C(C)C` (stereo partly drawn) [Compound 183]: the EC50 came out at 3.1 nM at SST2, 1000 nM in experiment [1] and 0.074 nM in experiment [2].
The matching figures for `CC[C@H](C)[C@@H]([C@@H](CC(=O)N1CCC[C@H]1[C@H](OC)[C@@H](C)C(=O)N[C@H](C)[C@@H](O)c1ccccc1)OC)N(C)C(=O)[C@@H](NC(=O)[C@H](C(C)C)N(C)C(=O)OCc1ccc(NC(=O)[C@H](CCCNC(N)=O)NC(=O)[C@@H](NC(=O)[C@H](CCc2nnn[nH]2)NC(=O)CCOCCC(=O)NCCNc2ncc(-c3cc(C)cc(F)c3)c(N3CCC(N)CC3)c2-c2nc3ccc(Cl)cc3[nH]2)C(C)C)cc1C(=O)NCCN)C(C)C` [Compound 84]: 3.8 nM, 580 nM and 0.28 nM.

By EC50 is commonly meant the concentration at which the effect is half-maximal.

(Values after patent US20260007758A1, “SO[…]-2 RECEPTOR (SST2R) NON-PEPTIDE DRUG CONJUGATES AND USES THEREOF” (Crinetics Pharmaceuticals, Inc., priority 2024, published 2026).)
